Columns and labels:
[1] = molecular target: T1, haematopoietic prostaglandin D synthase (H-PGDS) (Homo sapiens, UniProt O60760); experiment: H-PGDS RapidFire high throughput mass spectrometry assay (conversion of PGH2 to PGD2); type: biochemical; details: 10 nM H-PGDS, PGH2 formed in situ by COX-2 from arachidonic acid; read-out: Potency Range (mean pIC50) (converted)
T1 construct: Full length human H-PGDS cDNA (Invitrogen Ultimate ORF 10H13026) was amplified by PCR; 6-His (N); TEV protease cleavage site (N); made in house; host or cells: E. coli BL21 (DE3*), vector pET22b+
Summary of the method: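 RapidFire SPE–MS read-out calculated percent conversion from relative PGD2 and PGF2α (substrate surrogate) levels. Recombinant full-length human H-PGDS (His-tag, E. coli) turned over PGH2, produced in situ at ˜10 μM by human COX-2 (FLAG-tag, Sf9 cells) acting on arachidonic acid.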

male C57BI/6N mice = experiment: In vivo assay for functional response to muscle injury (eccentric contraction-induced muscle fatigue); design: species or system mouse; details: vs vehicle, FIG. 1
From the text: In Vivo Assays for Functional Response to Muscle Injury
Under anesthesia, the right hind limb of a mouse is restrained at the knee and the foot attached to a motorized footplate/force transducer. Needle electrodes are inserted into the upper limb, either side of the sciatic nerve and a current sufficient to elicit a maximal muscle contraction is applied. Muscle tension is produced by moving the footplate to lengthen the plantarflexor muscles while the limb is under maximal stimulation. This is repeated 60 times to fatigue the muscles of the lower limb. Anesthesia, limb immobilization and limb stimulation are then repeated at regular intervals to measure maximal isometric force in the recovering limb. 7 to 9 animals are tested for each test condition.

normal mice = experiment: in vivo assay for muscle function following limb muscle injury; details: FIG. 1

T1 sequence (O60760 whole entry): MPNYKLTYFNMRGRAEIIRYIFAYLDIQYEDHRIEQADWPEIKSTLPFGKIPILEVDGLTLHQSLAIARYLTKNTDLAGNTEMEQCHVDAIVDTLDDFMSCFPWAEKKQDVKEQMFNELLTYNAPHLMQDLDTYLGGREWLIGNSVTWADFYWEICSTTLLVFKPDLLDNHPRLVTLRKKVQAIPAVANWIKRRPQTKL

CC(C)(O)[C@H]1CC[C@H](NC(=O)N2CC(Oc3cc(F)cc4scnc34)C2)CC1 [Example 141, 3-((6-Fluorobenzo[d]thiazol-4-yl)oxy)-N-((trans)-4-(2-hydroxypropan-2-yl)cyclohexyl)azetidine-1-carboxamide]
IC50 [1]: 10 to 79.4 nM | kinetics of recovery of maximal isometric force after eccentric contraction injury (male C57BI/6N mice; PO 3, 10 and 30 mg/kg BID beginning 10 min prior to eccentric contraction challenge): acceleration in the kinetics of recovery | initial magnitude of the injury, isometric limb force 24-hours following protocol initiation (male C57BI/6N mice; PO 3, 10 and 30 mg/kg BID, 24 hours): reduced the initial magnitude of the injury | functional repair dose response curves of H-PGDS inhibition following limb muscle injury (normal mice): protection and acceleration of functional repair

NC(=O)c1ccc(N2CC(NC(=O)[C@H]3C[C@H](Oc4cc(F)cc5scnc45)C3)C2)nc1 [Example 110, 6-(3-((trans)-3-(6-Fluorobenzo[d]thiazol-4-yloxy)cyclobutanecarboxamido)azetidin-1-yl)nicotinamide]
IC50 [1]: 10 to 79.4 nM

CC(C)(C)c1csc(NC(=O)[C@H]2C[C@H](Oc3cccc4cccnc34)C2)n1 [Example 211, (trans)-N-(4-(tert-Butyl)thiazol-2-yl)-3-(quinolin-8-yloxy)cyclobutanecarboxamide]
IC50 [1]: 10 to 79.4 nM

From US11053234B2 (GlaxoSmithKline Intellectual Property Development Limited, priority 2016, dated 2021)
